Here are results for 29 compounds from patent US11787780B2 (CORCEPT THERAPEUTICS INCORPORATED, priority 2020, dated 2023).

Test [1] deals with glucocorticoid receptor (GR) recombinant ligand binding domain (LBD) (Homo sapiens (Human), UniProt P04150). Put plainly: GR binding fluorescence polarisation (FP) assay. Particulars: displacement of fluorescently tagged ligand. As for the experimental part: Binding of test compounds to the glucocorticoid receptor (GR) is determined using a fluorescence polarisation (FP) assay utilising a recombinant ligand binding domain (LBD) of GR. The test compounds are assessed by their ability to displace a fluorescently tagged ligand and detection of the resulting decrease in fluorescence polarisation.
Sequence of glucocorticoid receptor (GR) recombinant ligand binding domain (LBD) (P04150 524-758): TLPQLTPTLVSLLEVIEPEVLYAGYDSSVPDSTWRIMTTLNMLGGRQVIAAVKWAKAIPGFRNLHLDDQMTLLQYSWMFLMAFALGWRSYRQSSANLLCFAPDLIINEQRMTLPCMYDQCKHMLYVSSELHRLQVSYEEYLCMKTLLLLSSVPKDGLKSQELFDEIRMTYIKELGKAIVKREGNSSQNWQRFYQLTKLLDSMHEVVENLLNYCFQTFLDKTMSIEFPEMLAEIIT
On the technique in general: Polarisation of emitted light reports the rotation of a fluorescent probe.

For test [2], the system named is induction of TAT by dexamethasone in HepG2 cells. Put plainly: Hep G2 TAT assay (inhibition of dexamethasone-induced TAT). Type of test: cell-based, human. Particulars: challenge of 100 nM dexamethasone, IC50 converted to Ki by Cheng and Prusoff equation.

Consider `Cc1cc2c(cnn2-c2ccc(F)cc2)cc1C1(Cc2cccc(C(F)(F)F)c2)CCN(S(=O)(=O)c2cnn(C)c2)C1` (stereo not shown) [Example 176], for which the IC50 (commonly the concentration at which inhibition is half-maximal) in test [1] was determined as 60 nM. Moreover, the Ki – broadly, the equilibrium dissociation constant of an inhibitor or competing ligand from its target – in test [2] is 33 nM.

With `Cc1cc2c(cnn2-c2ccc(F)cc2)cc1C1(Cc2ccc(C(F)(F)F)cc2)CCN(S(C)(=O)=O)C1` (stereo not shown) [Example 177], in test [1], the IC50 came to 212 nM. Further, in test [2], the Ki was found to be 28 nM.

For the compound `Cc1cc2c(cnn2-c2ccc(F)cc2)cc1C1(Cc2ccc(C(F)(F)F)cc2)CCN(S(=O)(=O)c2cnn(C)c2)C1` (stereo not shown) [Example 178], the concentration for half-maximal inhibition (IC50) in test [1] turned out to be 197 nM. This compound also came in with a Ki in test [2] of 30 nM.

With `CCCn1cc(S(=O)(=O)N2CCC(Cc3nccs3)(c3cc4cnn(-c5ccc(F)cc5)c4cc3C)C2)cn1` (stereo not shown) [Example 189], the IC50 in test [1] was found to be 11 nM. In addition, the affinity in test [2], expressed as Ki, was 91 nM.

Turning to `CC(=O)N1CCC(Cc2ccccc2)(c2cc3cnn(-c4ccc(F)cc4)c3cc2C)C1` (stereo not shown) [Example 190, 1-(3-benzyl-3-(1-(4-fluorophenyl)-6-methyl-1H-indazol-5-yl)pyrrolidin-1-yl)ethan-1-one], the IC50 in test [1] turned out to be 5 nM. Besides, the Ki in test [2] amounted to 55 nM.

As to `CC(=O)N1CCC(Cc2ccc(F)cc2)(c2cc3cnn(-c4ccc(F)cc4)c3cc2C)C1` (stereo not shown) [Example 191, 1-(3-(4-fluorobenzyl)-3-(1-(4-fluorophenyl)-6-methyl-1H-indazol-5-yl)pyrrolidin-1-yl)ethan-1-one], in test [1], the IC50 came to 6 nM. In addition, the inhibitory constant (Ki) in test [2] amounted to 61 nM.

Take `CC(=O)N1CCC(Cc2cccc(C(F)(F)F)c2)(c2cc3cnn(-c4ccc(F)cc4)c3cc2C)C1` (stereo not shown) [Example 192, 1-(3-(1-(4-fluorophenyl)-6-methyl-1H-indazol-5-yl)-3-(3-(trifluoromethyl)benzyl)pyrrolidin-1-yl)ethan-1-one]: the IC50 in test [1] stood at 14 nM. For the same compound, the Ki in test [2] is 72 nM.

Consider `Cc1cc2c(cnn2-c2ccc(F)cc2)cc1C1(Cc2ccccc2)CCN(C(=O)c2ccccc2)C1` (stereo not shown) [Example 193, (3-benzyl-3-(1-(4-fluorophenyl)-6-methyl-1H-indazol-5-yl)pyrrolidin-1-yl)(phenyl)methanone], for which, in test [1], the IC50 worked out at 28 nM. The compound also came in with an inhibition constant Ki in test [2] of 25 nM.

For `CC(=O)N1CCC(Cc2ccc(C(F)(F)F)cc2)(c2cc3cnn(-c4ccc(F)cc4)c3cc2C)C1` (stereo not shown) [Example 194, 1-(3-(1-(4-fluorophenyl)-6-methyl-1H-indazol-5-yl)-3-(4-(trifluoromethyl)benzyl)pyrrolidin-1-yl)ethan-1-one], the IC50 in test [1] stood at 109 nM. This compound showed a Ki in test [2] of 102 nM.

Consider `Cc1cc2c(cnn2-c2ccc(F)cc2)cc1C1(Cc2ccccc2)CCN(S(=O)(=O)c2cnn(C)n2)C1` (stereo not shown) [Example 213, 5-(3-benzyl-1-((2-methyl-2H-1,2,3-triazol-4-yl)sulfonyl)pyrrolidin-3-yl)-1-(4-fluorophenyl)-6-methyl-1H-indazole], for which, in test [1], the IC50 came out at 17 nM. For the same compound, affinity in test [2] was put at a Ki of 13 nM.

With `Cc1cc2c(cnn2-c2ccc(F)cc2)cc1C1(Cc2ccccc2)CCN(S(=O)(=O)c2ccn(C)n2)C1` (stereo not shown) [Example 215, 5-(3-benzyl-1-((1-methyl-1H-pyrazol-3-yl)sulfonyl)pyrrolidin-3-yl)-1-(4-fluorophenyl)-6-methyl-1H-indazole], the IC50 in test [1] is 10 nM. In test [2], this compound showed a Ki of 10 nM.

On to `CCn1cc(S(=O)(=O)N2CCC(Cc3ccc(F)cc3)(c3cc4cnn(-c5ccc(F)cc5)c4cc3OC)C2)cn1` (stereo not shown) [Example 217, 5-(1-((1-ethyl-1H-pyrazol-4-yl)sulfonyl)-3-(4-fluorobenzyl)pyrrolidin-3-yl)-1-(4-fluorophenyl)-6-methoxy-1H-indazole], for which the IC50 in test [1] is 17 nM. In test [2], this compound registered a Ki of 14 nM.

As for `COc1cc2c(cnn2-c2ccc(F)cc2)cc1C1(Cc2ccccc2)CCN(S(=O)(=O)c2cnn(C)n2)C1` (stereo not shown) [Example 218, 5-(3-benzyl-1-((2-methyl-2H-1,2,3-triazol-4-yl)sulfonyl)pyrrolidin-3-yl)-1-(4-fluorophenyl)-6-methoxy-1H-indazole], the IC50 in test [1] was 14 nM. Besides, the Ki in test [2] was determined as 10 nM.

With `COc1cc2c(cnn2-c2ccc(F)cc2)cc1C1(Cc2ccc(F)cc2)CCN(S(=O)(=O)c2cnn(C)n2)C1` (stereo not shown) [Example 219, 5-(3-(4-fluorobenzyl)-1-((2-methyl-2H-1,2,3-triazol-4-yl)sulfonyl)pyrrolidin-3-yl)-1-(4-fluorophenyl)-6-methoxy-1H-indazole], in test [1], the IC50 worked out at 26 nM. Moreover, in test [2], the Ki is 13 nM.

Regarding `Cc1cc2c(cnn2-c2ccc(F)cc2)cc1C1(CC#CC2CC2)CCN(S(=O)(=O)c2cnn(C)c2)C1` (stereo not shown) [Example 221, 5-(3-(3-cyclopropylprop-2-yn-1-yl)-1-((1-methyl-1H-pyrazol-4-yl)sulfonyl)pyrrolidin-3-yl)-1-(4-fluorophenyl)-6-methyl-1H-indazole], the IC50 in test [1] turned out to be 56 nM. The same compound yielded a Ki in test [2] of 45 nM.

With `CS(=O)(=O)N1CCC(Cc2ccccc2)(c2cc3cnn(-c4ccc(F)cc4)c3cc2Cl)C1` (stereo not shown) [Example 222, 5-(3-benzyl-1-(methylsulfonyl)pyrrolidin-3-yl)-6-chloro-1-(4-fluorophenyl)-1H-indazole], in test [1], the IC50 came to 11 nM. The compound also registered a Ki in test [2] of 39 nM.

For the compound `Cn1cc(S(=O)(=O)N2CCC(Cc3ccccc3)(c3cc4cnn(-c5ccc(F)cc5)c4cc3Cl)C2)cn1` (stereo not shown) [Example 223, 5-(3-benzyl-1-((1-methyl-1H-pyrazol-4-yl)sulfonyl)pyrrolidin-3-yl)-6-chloro-1-(4-fluorophenyl)-1H-indazole], the IC50 in test [1] is 14 nM. For the same compound, the Ki in test [2] was determined as 38 nM.

Consider `Cn1ncc(S(=O)(=O)N2CCC(Cc3ccccc3)(c3cc4cnn(-c5ccc(F)cc5)c4cc3Cl)C2)n1` (stereo not shown) [Example 226, 5-(3-benzyl-1-((2-methyl-2H-1,2,3-triazol-4-yl)sulfonyl)pyrrolidin-3-yl)-6-chloro-1-(4-fluorophenyl)-1H-indazole], for which the IC50 in test [1] was 21 nM. In test [2], this compound had a Ki of 13 nM.

Regarding `COc1cc2c(cnn2-c2ccc(F)cc2)cc1C1(Cc2ccccc2)CCN(C(=O)c2cncs2)C1` (stereo not shown) [Example 231, (3-benzyl-3-(1-(4-fluorophenyl)-6-methoxy-1H-indazol-5-yl)pyrrolidin-1-yl)(thiazol-5-yl)methanone], the IC50 in test [1] was found to be 13 nM. The compound also returned a Ki in test [2] of 48 nM.

Regarding `Cc1cc2c(cnn2-c2ccc(F)cc2)cc1C1(Cc2ccccc2)CCN(C(=O)c2cncs2)C1` (stereo not shown) [Example 232, (3-benzyl-3-(1-(4-fluorophenyl)-6-methyl-1H-indazol-5-yl)pyrrolidin-1-yl)(thiazol-5-yl)methanone], in test [1], the IC50 amounted to 10 nM. The compound further gave a Ki in test [2] of 37 nM.

In the case of `COc1cc2c(cnn2-c2ccc(F)cc2)cc1C1(Cc2ccccc2)CCN(C(=O)c2nccs2)C1` (stereo not shown) [Example 233, (3-benzyl-3-(1-(4-fluorophenyl)-6-methoxy-1H-indazol-5-yl)pyrrolidin-1-yl)(thiazol-2-yl)methanone], the IC50 in test [1] is 70 nM. The compound also displayed a Ki in test [2] of 52 nM.

Take `Cc1cc2c(cnn2-c2ccc(F)cc2)cc1C1(Cc2ccccc2)CCN(C(=O)c2cscn2)C1` (stereo not shown) [Example 235]: in test [1], the IC50 stood at 12 nM. Besides, affinity in test [2] was put at a Ki of 34 nM.

Consider `Cc1cc2c(cnn2-c2cc(C)c(=O)n(C)c2)cc1C1(Cc2ccccc2)CCN(S(=O)(=O)c2cnn(C)n2)C1` (stereo not shown) [Example 237, 5-(5-(3-benzyl-1-((2-methyl-2H-1,2,3-triazol-4-yl)sulfonyl)pyrrolidin-3-yl)-6-methyl-1H-indazol-1-yl)-1,3-dimethylpyridin-2(1H)-one], for which, in test [1], the IC50 is 4.8 nM. In test [2], this compound came in with a Ki of 22 nM.

`Cc1cc2c(cnn2-c2ccc(F)c(C#N)c2)cc1C1(Cc2ccccc2)CCN(S(=O)(=O)c2cnn(C)n2)C1` (stereo not shown) [Example 239, 5-(5-(3-benzyl-1-((2-methyl-2H-1,2,3-triazol-4-yl)sulfonyl)pyrrolidin-3-yl)-6-methyl-1H-indazol-1-yl)-2-fluorobenzonitrile]: the IC50 in test [1] was determined as 28 nM. Besides, the affinity in test [2], expressed as Ki, was 36 nM.

With `Cc1cc2c(cnn2-c2ccc(F)c(CO)c2)cc1C1(Cc2ccccc2)CCN(S(=O)(=O)c2cnn(C)n2)C1` (stereo not shown) [Example 242, (5-(5-(3-benzyl-1-((2-methyl-2H-1,2,3-triazol-4-yl)sulfonyl)pyrrolidin-3-yl)-6-methyl-1H-indazol-1-yl)-2-fluorophenyl)methanol], the IC50 in test [1] is 18 nM. In addition, the Ki in test [2] came out at 44 nM.

As for `COc1cc2c(cnn2-c2ccc(F)c(C#N)c2)cc1C1(Cc2ccccc2)CCN(S(=O)(=O)c2cnn(C)n2)C1` (stereo not shown) [Example 243, 5-(5-(3-benzyl-1-((2-methyl-2H-1,2,3-triazol-4-yl)sulfonyl)pyrrolidin-3-yl)-6-methoxy-1H-indazol-1-yl)-2-fluorobenzonitrile], the IC50 in test [1] was determined as 65 nM. The affinity in test [2], expressed as Ki, was 38 nM.

As for `Cc1cc2c(cnn2-c2cc(F)c(=O)n(C)c2)cc1C1(Cc2ccccc2)CCN(S(=O)(=O)c2cnn(C)n2)C1` (stereo not shown) [Example 246, 5-(5-(3-benzyl-1-((2-methyl-2H-1,2,3-triazol-4-yl)sulfonyl)pyrrolidin-3-yl)-6-methyl-1H-indazol-1-yl)-3-fluoro-1-methylpyridin-2(1H)-one], the concentration for half-maximal inhibition (IC50) in test [1] is 6.3 nM. The compound further registered a Ki in test [2] of 49 nM.

As to `Cc1cc2c(cnn2-c2ccc(=O)n(C(F)F)c2)cc1C1(Cc2ccccc2)CCN(S(=O)(=O)c2cnn(C)n2)C1` (stereo not shown) [Example 247, 5-(5-(3-benzyl-1-((2-methyl-2H-1,2,3-triazol-4-yl)sulfonyl)pyrrolidin-3-yl)-6-methyl-1H-indazol-1-yl)-1-(difluoromethyl)pyridin-2(1H)-one], the IC50 in test [1] turned out to be 55 nM. Moreover, in test [2], the affinity corresponds to a Ki of 240 nM.

With `Cc1cc2c(cnn2-c2cc(Cl)c(=O)n(C)c2)cc1C1(Cc2ccccc2)CCN(S(=O)(=O)c2cnn(C)n2)C1` (stereo not shown) [Example 248, 5-(5-(3-benzyl-1-((2-methyl-2H-1,2,3-triazol-4-yl)sulfonyl)pyrrolidin-3-yl)-6-methyl-1H-indazol-1-yl)-3-chloro-1-methylpyridin-2(1H)-one], the concentration for half-maximal inhibition (IC50) in test [1] worked out at 55 nM. In test [2], the Ki was determined as 260 nM.
